# Values of other authors in patent US20150105473A1, “AN ANTIBACTERIAL COMPOSITION WITH LOW AMOUNTS OF SURFACTANT AND ANTIBACTERIAL ACTIVES” (The Dial Corporation, priority 2013, published 2015).
compound,measurement,value
Oc1cc(Cl)ccc1Oc1ccc(Cl)cc1Cl [triclosan],solubility in water,poor solubility in water
